Like-named read-outs stand apart in the source and are kept apart here.
Tests used:
[1] = system: purified secondary alcohol dehydrogenase (SADH); test: inhibition of purified SADH by metal-chelating agents, thioreagents, metals; assay type: biochemical, Pseudomonas sp. ATCC 21439
Experimental: Secondary alcohol dehydrogenase (SADH) from an obligate methanol utilizer, Pseudomonas sp. ATCC 21439 was purified as follows. […] 0.05 M sodium phosphate buffer, pH 7.0 with 0.5 mM dithiothretol (buffer A) and were disrupted sonically (5×1 min.). The crude extract was separated by centrifugation. The crude extract was heat-treated at 50° C. in a water bath for 10 minutes. The resulting precipitate was removed by centrifugation. To the supernatant solution, 25 ml of protamine sulfate solution (2% solution in 0.1 M Tris base) was added dropwise with continuous stirring. After standing for 30 minutes, the extract was centrifuged. The supernatant solution was fractionated with solid ammonium sulfate. […] This DEAE-cellulose eluate was concentrated by ammonium sulfate fractionation. Material precipitating between 30 and 50% ammonium sulfate saturation was collected by centrifugation and dialyzed overnight against A. This fraction was further washed and filtered through an Amicon unit with XM 50 membrane. The concentrated fraction (6 ml) inside the Amicon unit was applied to an Affi-Gel Blue column (0.8 cm×18 cm) which had been equilibrated with buffer A for affinity chromatography. The column was washed overnight with buffer A (0.18 ml./min.) and then was eluted with buffer A containing 5 mM NAD. Each 1 ml. fraction was collected.
The purified secondary alcohol dehydrogenase enzyme (SADH) may be used directly for converting C3 -C6 secondary alcohols to the corresponding methyl ketones by the procedures described above; however, a source of NAD^+ must be added to the reaction medium. One can determine the NAD-linked secondary alcohol dehydrogenase activity with a fluorescence spectrophotometer (Perkin Elmer, Model MPF 44A) by following the formation of reduced NAD (Ex 340 nm, Em 460 nm). The assay system (3 ml.) will typically contain: sodium phosphate buffer pH 7.0, 150 μmol; NAD 1.0 μmol; a given amount of enzyme preparation; and 20 μmol secondary alcohol. The reaction is started by the addition of secondary alcohol. One unit of SADH enzyme activity represents the reduction of one nmole NAD per minute.
The effect of metal-chelating agents and thioreagents on the activity of the purified SADH enzyme were studied. […] The possibility of ethanol or n-propanol as an inhibitor was studied.

[2] = system: cell-free particulate fractions of methane-grown methylotrophs; test: inhibitors and electron donors of n-alkane conversion to sec. alcohols by cell-free particulate fractions; assay type: biochemical
Text: The conditions for preparing the cell suspensions or the cell-free particulate fractions from methane-grown methylotroph microorganisms is the same as described above.

[3] = system: cell suspensions of C1-utilizers; test: studies on production of 2-butanone from 2-butanol by cell suspensions of the strains tested; assay type: cell-based; conditions: strains tested
Text: The following summarizes tests conducted on the optimal conditions for the production of methyl ketones from C3 -C6 sec. alcohols.
The substrate specificity for the oxidation of C3 -C6 secondary alcohols by the strains of C1 -utilizers was studied.

[4] = system: purified secondary alcohol dehydrogenase; test: substrate specificity, electron acceptor and stoichiometry of purified yeast SADH; conditions: for oxidation by the purified yeast secondary alcohol dehydrogenase: examined spectrophotometrically
cell-free SADH system = test: cofactor requirement of the cell-free SADH systems; assay type: biochemical; conditions: cell-free systems tested
Experimental: To prepare the cell-free secondary alcohol dehydrogenase (SADH) system, the washed cells were disrupted with a Wave Energy Ultrasonic Oscillator, Model W201 (Wave Energy System, Inc., Newtown, Pa.) and centrifuged at 20,000×g. for 30 minutes. […] The enzyme activity was measured with a fluorescence spectrophotometer (Perkin Elmer, Model MPF 44A) by following the formation of reduced NAD (EX 340 nm, Em 460 nm). The formation of reduced NAD was also followed with an absorption spectrophotometer at 340 nm. The assay system (3 ml.) contained: potassium phosphate buffer pH 7.0; 150 μmol.; NAD 1 μmol.; a given amount of enzyme preparation; and secondary alcohol 10 μmol. The reaction was started by the addition of substrate. One unit of enzyme activity represents the reduction of one μmole NAD per minute. Protein concentrations were determined by the Lowry method (J. Biol. Chem., 193: 255-275 (1951)).

[5] = system: purified secondary alcohol dehydrogenase (SADH); test: substrate specificity and Michaelis constants of purified SADH; assay type: biochemical, Pseudomonas sp. ATCC 21439
[6] = system: Methylococcus capsulatus CRL M1 NRRL B-11,219; test: conversion of n-alkanes to oxidation products by cell suspensions (Table XVIII); assay type: cell-based; conditions: methane-grown cell suspension; pH 7.0
Experimental: (§1) ^(a) Cell-suspensions of methanegrown methylotroph microorganisms
(§2) indicated in 0.15 M phosphate buffer, pH 7.0 incubated in the alkanes as
(§3) indicated at 3° C. The oxidation products were determined by g.l.c

[7] = system: Methylosinus trichosporium OB3b NRRL B-11,196; test: as above; assay type: cell-based; conditions: methane-grown cell suspension; pH 7.0
Experimental: as §1, §2, §3

[8] = each inhibitor at a final concentration of 1 mM, measured spectrofluorometrically

What does the source list for NC(N)=S [Thiourea]?
inhibition of SADH activity [1]: not inhibited; % inhibition of SADH activity [1, 8]: 0%; inhibition of conversion of n-alkanes to sec. alcohols (words) [2]: inhibited; inhibition of production of 2-butanone from 2-butanol by cell suspensions [3]: not inhibited

How did the “oxidation by the purified yeast secondary alcohol dehydrogenase” value [4] turn out when CC(O)CO (stereo not drawn) [1,2-propandiol] was run?
Its value is “not oxidized”.

Which “effectiveness as cofactor for oxidation of 2-butanol / C3-C6 secondary alcohols” value (cell-free SADH system) does the source give for C[n+]1c2ccccc2nc2ccccc21 [phenazine methosulfate, reference compound] here?
Its value is “not effective”.

And the “ability to act as electron acceptor/carrier for the purified enzyme” value [4]?
The value was “could not act as electron carrier”.

For NC(=O)C1=CN([C@@H]2O[C@H](COP(=O)(O)OP(=O)(O)OC[C@H]3O[C@@H](n4cnc5c(N)ncnc54)[C@H](O)[C@@H]3O)[C@@H](O)[C@H]2O)C=CC1 [NADH, reduced nicotinamide adenine dinucleotide], which “use as electron donor for hydroxylation of n-alkanes” value [2] is on record?
Its value is “requires”.

Which “% inhibition of SADH activity” value [1, 8] does the source give for [Mn+2] [Mn^++] here?
Its value is 0%.

Which “inhibition of SADH activity” value [1] does the source give for CCCO [n-propanol] here?
The value was “did not inhibit”.

And the “oxidation by the purified yeast secondary alcohol dehydrogenase” value [4]?
Its value is “not oxidized”.

What does the source list for O=C(O)CI [iodoacetic acid]?
% inhibition of SADH activity [1]: 0%; inhibition of SADH activity [1]: not inhibited

For CCCCO [butan-1-ol], which “oxidation by the purified yeast secondary alcohol dehydrogenase” value [4] is on record?
Its value is “not oxidized”.

With O=C(O)CN(CCN(CC(=O)O)CC(=O)O)CC(=O)O [EDTA] as the molecule, how does the “% inhibition of SADH activity” value [1] read?
Its value is 63%.

Which “oxidation by purified SADH” value [5] does the source give for CC(O)C(C)O (stereo not drawn) [butane 2,3-diol] here?
Its value is “lower rate”.

Which “Conversion Rate, product Ethanol” value [6] does the source give for CC [Ethane] here?
The value was 2.0 μmoles/hr./mg./protein.

What about the “Conversion Rate, product Ethanol” value [7] of the same molecule?
The value was 1.3 μmoles/hr./mg./protein.

Which “% inhibition of SADH activity” value [1, 8] does the source give for [Mg+2] [Mg^++] here?
The value was 0%.

C=O [formaldehyde] was tested. Which “oxidation by purified SADH” value [5] did it give?
The value was “not oxidized”.

What does the source list for CCC=O [ropanal]?
oxidation by purified SADH [5]: lower rate; relative percent rate of oxidation by SADH ([5]; 2-butanol = 100%): 2%

With O=C(O)CCC(=O)O [succinic acid] as the molecule, how does the “oxidation by purified SADH” value [5] read?
The value was “not oxidized”.

With Oc1cccc2cccnc12 [8-hydroxyquinoline] as the molecule, how does the “inhibition of conversion of n-alkanes to sec. alcohols (words)” value [2] read?
Its value is “inhibited”.

Which “ability to act as electron acceptor/carrier for the purified enzyme” value [4] does the source give for cytochrome c [reference compound] here?
The value was “could not act as electron carrier”.

CCN1C(=O)C=CC1=O [N-ethylmalemide, N-ethylmaleimide] was tested. Which “inhibition of SADH activity” value [1] did it give?
Its value is “not inhibited”.

And the “% inhibition of SADH activity” value [1, 8]?
The value was 6%.

NC(=O)c1ccc[n+]([C@@H]2O[C@H](COP(=O)(O)OP(=O)(O)OC[C@H]3O[C@@H](n4cnc5c(N)ncnc54)[C@H](OP(=O)(O)O)[C@@H]3O)[C@@H](O)[C@H]2O)c1 [NADP, reference compound] was tested. Which “effectiveness as cofactor for oxidation of 2-butanol / C3-C6 secondary alcohols” value (cell-free SADH system) did it give?
The value was “not effective”.

What about the “ability to act as electron acceptor/carrier for the purified enzyme” value [4] of the same molecule?
Its value is “could not act as electron carrier”.

With [Co+2] [Co^++] as the molecule, how does the “% inhibition of SADH activity” value [1, 8] read?
Its value is 0%.

What does the source list for c1ccc(-c2ccccn2)nc1 [α,α-bipyridyl]?
% inhibition of SADH activity [1, 8]: 70%; inhibition of conversion of n-alkanes to sec. alcohols (words) [2]: inhibited; inhibition of production of 2-butanone from 2-butanol by cell suspensions [3]: inhibited

[Fe+2] [ferrous] was tested. Which “% inhibition of SADH activity” value [1, 8] did it give?
The value was 50%.

How did the “oxidation by the purified yeast secondary alcohol dehydrogenase” value [4] turn out when CO [methanol] was run?
The value was “not oxidized”.

Which “oxidation by purified SADH” value [5] does the source give for Oc1ccccc1 [phenol] here?
The value was “not oxidized”.

Source: patent US4250259A, “Microbiological production of ketones from C3 -C6 secondary alcohols” (priority 1979, dated 1981)
